Measurements as given in patent US20230391817A1, “5ALPHA-HYDROXY-6BETA-[2-(1-H-IMIDAZOL-4-YL)-ETHYLAMINO]-CHOLESTAN-3BETA-OL ANALOGUES AND PHARMACEUTICAL COMPOSITIONS COMPRISING SAME FOR USE IN THE TREATMENT OF CANCER” (priority 2020, published 2023).
Read-outs that look alike come from different tables or passages of the source.

Tests used:
[1] = test system: murine 4T1 mammary tumor cells; experiment: Cell viability of 4T1 cells, LDH; format: cell-based; details: Mus musculus, 4T1, LDH, 48 h
Method: (§1) Cell viability tests were performed on murine 4T1 mammary tumor cells characterized as triple negative (HER2-, ER-, PR-).
(§2) For this experiment, a cell culture medium was prepared. The culture medium consisted of Dulbecco's Modified Eagle Medium (DMEM, sold by Westburg as LO BE12-604F), comprising 4.5 g/L glucose with L-glutamine, to which 10% fetal calf serum (FCS) and 50 U/ml penicillin/streptomycin are added. The 4T1 cells were introduced into this culture medium.
(§3) 96-well plates were seeded with 2000 4T1 cells per well. After 72 hours (h) of culture under normal condition, i.e. in an incubator at 37° C. at […], the 4T1 cells were treated for 48 h with DX101, DX103, DX111, DX123, DX125, DX127 and DX129 at 100 nM, 1 μM, 2.5 μM and 10 μM. A control condition (CTL) is also performed in parallel using the previously described protocol without treatment with the molecules DX101, DX103, DX111, DX123, DX125, DX127 or DX129.
(§4) For the second method, the percentage of viability is determined by assaying the activity of the enzyme LDH (lactate dehydrogenase) in cell supernatants using the non radioactive cytotoxicity assay kit (Promega). LDH is an enzyme released in the supernatant of dead cells. The higher the LDH activity in the supernatant, the greater the cell death. In this enzyme assay, the LDH released converts a violet tetrazolium salt to a red colored formazan, absorbing at 490 nm. The intensity of the red color is proportional to the number of dead cells. After 48 h of treatment, the supernatants are transferred to a new 96-well plate and incubated for 30 minutes in the presence of substrate mix at room temperature. The reaction is stopped with stop solution reagent and the absorbance is determined at 490 nm. The percentage of cell death is determined here using a 100% maximum LDH activity control (made from untreated cells incubated in the presence of lysis solution for 45 minutes at 37° C. just prior to addition of the substrate mix), and the cell viability in each well is then deduced from this percentage. The IC50 is then determined as explained in the preceding paragraph.

[2] = test system: BT-474 human mammary tumor cells; experiment: Cell viability of BT-474 cells, MTT; format: cell-based; details: for Mean LogIC50 (±SEM) / IC50: BT-474, MTT, 48 h; for Mean LogIC50 (±SEM): log of IC50 in μM; for IC50: Homo sapiens
Method: (§5) The cell viability is measured by three different methods. For the first method, MTT labeling is performed at 48 hours. This test is based on the use of the tetrazolium salt MTT (3-(4,5-dimethylthiazol-2-yl)-2,5-diphenyltetrazolium bromide). Tetrazolium is reduced by mitochondrial succinate dehydrogenase in active live cells to formazan, a purple colored precipitate. The amount of precipitate formed is proportional to the amount of live cells but also to the metabolic activity of each cell. Thus, a simple determination of the optical density at 550 nm by spectroscopy makes it possible to determine the relative amount of live and metabolically active cells. After 48 hours, the medium is aspirated, and the cells are incubated with MTT (0.5 mg/ml in culture medium) for about 3 hours. The MTT solution is aspirated and the purple crystals are dissolved in dimethyl sulfoxide (DMSO). The OD (optical density) is measured at 550 nm. The percentage of viability is then determined in each well against the CTL and the IC50 (concentration at which 50% of cells remain alive) is determined for each molecule with the Prism software using a nonlinear regression curve (log(inhibitor) vs. Response).
(§6) Cell viability tests were also performed on BT-474 human mammary tumor cells (characterized as triple positive HER2+, ER+, PR+). The BT-474 cells were in a cell culture medium identical to the previous example and seeded in 24-well plates at 70 000 cells per well for cell viability determination using trypan blue, or in 96-well plates at 13 000 cells per well for cell viability determination using the MTT or LDH assay. After 96 hours (h) of culture under normal conditions, i.e. in an incubator at 37° C. with […], BT-474 cells were treated for 48 h with DX101, DX103, DX105, DX111, DX123 and DX127 at 100 nM, 1 μM, 2.5 μM and 10 μM. A control is also performed using the protocol described previously without treatment with DX101, DX103, DX105, DX111, DX123 and DX127.
(§7) After a 10-minute trypsin digestion at 37° C., the cell survival was also quantified by means of a trypan blue test with automatic counting using the Biorad TC20 machine (TC20™ Automated Cell Counter). The trypan blue test is based on the integrity of cell membranes, which is disrupted in the dead cells. Trypan blue stains dead cells blue. The Biorad TC20 cell counter counts the proportion of blue and non-blue cells, and reports the percentage of cells. The percentage of viability is then determined in each well relative to the untreated cells and the IC50 is determined as explained in the preceding example. Also, the percentage viability of the BT-474 cells was determined using the MTT and LDH assay, performed as described in the preceding example.

[3] = Oral pharmacokinetic study in rat, LC/MS assay in plasma (Examples 21-24); format: in vivo; details: 50 mg/kg
Method: The following study is an LC/MS assay in plasma of the various molecules over 3 days (11 measurement points in the end). The graphs are always presented in comparison with DX101 which is the reference.
Plasma sampling at 0 (without injection), 5, 10, 15, 30 min, 1 h, 4 h, 8 h, 24 h, 48 h, 72 h (11 points)

[4] = test system: BT-474 human mammary tumor cells; experiment: Cell viability of BT-474 cells, LDH; format: cell-based; details: BT-474, LDH, 48 h; for Mean LogIC50 (±SEM): log of IC50 in μM; for IC50: Homo sapiens
Method: as §4, §6, §7

[5] = Pharmacokinetics and bioavailability, oral and I.V., in rats (Example 28); format: in vivo; details: rat
Method: Plasma sampling at 0 (without injection), 15, 30 min, 1 h, 4 h, 8 h, 24 h, 48 h, 72 h

[6] = test system: murine 4T1 mammary tumor cells; experiment: Cell viability of 4T1 cells, MTT; format: cell-based; details: for IC50: Mus musculus, 4T1, MTT, 48 h
Method: as §1, §2, §3, §5

[7] = log of IC50 in μM, read-out: Mean LogIC50 (±SEM) (converted)

SMILES: CC(C)CCC[C@@H](C)[C@H]1CC[C@H]2[C@@H]3C[C@@H](NCCc4c[nH]cn4)[C@@]4(O)C[C@@H](O)CC[C@]4(C)[C@H]3CC[C@]12C [DX101, 5α-hydroxy-6β-[2-(1H-imidazol-4-yl)ethylamino]cholestan-3β-ol, reference compound]
- IC50 [1, 7]: 3.24 µM
- IC50 ([1]; read-out: IC50): 3.24 µM
- Mean LogIC50 (±SEM) [2]: 0.88 ± 0.03
- IC50 [2]: 7.53 µM
- Area under the curve ([3]; oral, plasma, Example 24): 3019
- Max concentration ([3]; oral, plasma, Example 24): 150 nM
- Area under the curve ([3]; oral, plasma, Examples 21-23): 143297
- Max concentration ([3]; oral, plasma, Examples 21-23): 140 nM
- Mean LogIC50 (±SEM) [4]: 1.03 ± 0.06
- IC50 [4]: 10.6 µM
- clearance ([5]; plasma, iv, 5 mg/kg, read-out: Clearance): 11 mL/min/kg
- half-life ([5]; plasma, iv, 5 mg/kg, read-out: T½ 2nd phase (converted)): 28 h
- bioavailability ([5]; plasma, po 50 mg/kg versus iv 5 mg/kg, read-out: F %): 3%
- half-life ([5]; plasma, po, 50 mg/kg, read-out: T½ 2nd phase (converted)): 39 h
- ASC(t0-tlast) ([5]; iv, 5 mg/kg, plasma): 6205
- Cmax ([5]; iv, 5 mg/kg, plasma, read-out: Cmax): 3310 ng/mL
- Vd ([5]; plasma, iv, 5 mg/kg, iv, 5 mg/kg, read-out: Vd): 29 L/kg
- Vd ([5]; plasma, iv, 5 mg/kg, iv, 5 mg/kg, read-out: Vss): 19 L/kg
- clearance ([5]; po, 50 mg/kg): 412 mL/min/kg
- ASC(t0-tlast) ([5]; po, 50 mg/kg, plasma): 1546
- Cmax ([5]; po, 50 mg/kg, plasma, read-out: Cmax): 77 ng/mL
- Tmax ([5]; po, 50 mg/kg, plasma, read-out: Tmax): 4 h
- IC50 [6, 7]: 4.37 µM
- IC50 ([6]; read-out: IC50): 4.4 µM

SMILES: CC(C)CCC[C@@H](C)[C@H]1CC[C@H]2[C@@H]3C[C@@H](NCCc4c[nH]cn4)[C@@]4(O)C[C@@H](F)CC[C@]4(C)[C@H]3CC[C@]12C [DX111, 3β-fluoro-5α-hydroxy-6β-[2-(1H-imidazol-4-yl)ethylamino]cholestane]
- IC50 [1, 7]: 1.86 µM
- IC50 ([1]; read-out: IC50): 1.88 µM
- Mean LogIC50 (±SEM) [2]: 0.95 ± 0.10
- activity compared with DX101 ([2]; BT-474, Tables 2a, 2b and 2c (MTT, LDH, Trypan Blue)): similar
- IC50 [2]: 8.94 µM
- Area under the curve ([3]; in vivo, po): 368921
- Max concentration ([3]; in vivo, po): 515 nM
- Time for Cmax ([3]; in vivo, po): 240 min
- bioavailability / extent of absorption compared with DX101 ([3]; in vivo, po): three-fold higher absorption
- maximum concentration compared with DX101 ([3]; in vivo, po): higher maximum concentration
- speed of absorption compared with DX101 ([3]; in vivo, po): faster absorption
- Mean LogIC50 (±SEM) [4]: 0.89 ± 0.04
- IC50 [4]: 7.82 µM
- bioavailability ([5]; in vivo): 10%
- ASC(t0-tlast) ([5]; in vivo, iv, 5 mg/kg): 3516
- Cmax ([5]; in vivo, iv, 5 mg/kg): 2970 ng/mL
- clearance ([5]; in vivo, iv, 5 mg/kg): 25 mL/min/kg
- half-life ([5]; in vivo, iv, 5 mg/kg): 21 h
- Vd ([5]; in vivo, iv, 5 mg/kg, Vd): 43 L/kg
- Vd ([5]; in vivo, iv, 5 mg/kg, Vss): 12 L/kg
- bioavailability compared with DX101 ([5]; in vivo, po): three-fold higher bioavailability
- clearance compared with DX101 ([5]; in vivo, po): halved
- maximum plasma concentration compared with DX101 ([5]; in vivo, po): four times higher
- ASC(t0-tlast) ([5]; in vivo, po, 50 mg/kg): 3228
- Cmax ([5]; in vivo, po, 50 mg/kg): 309 ng/mL
- Tmax ([5]; in vivo, po, 50 mg/kg): 4 h
- clearance ([5]; in vivo, po, 50 mg/kg): 240 mL/min/kg
- half-life ([5]; in vivo, po, 50 mg/kg): 24 h
- cytotoxic activity compared with DX101 ([6]; 4T1, Tables 1a, 1b and 1c (MTT, LDH, Green Cytotoxicity Assay)): higher
- IC50 [6, 7]: 1.7 µM
- IC50 ([6]; read-out: IC50): 1.69 µM
